Values after ≈ are worked out from the molar mass of the structure shown.

Data on two compounds can be found in patent publication US10160785B2, “Antimicrobial peptides and their use for the treatment of topical infections” (priority 2015, dated 2018).

Holding throughout (format): cell-based
For assay [1], the system named is Candida albicans (Olomouc). Put plainly: microbe, parasite or virus in culture. The following applies: Candida albicans; RPMI broth microdilution, 35° C., 48 hours, visual; read-out: Antifungal activity MIC C. albicans Olomouc. The procedure:
(§1) All yeasts Candida albicans (Olomouc) and ATCC MYA-2876, Candida glabrata ATCC 2001 and DSY 565, Candida dubliniensis ATCC MYA-646, Candida krusei ATCC 6258 and Candida tropicalis ATCC 750 were sub-cultured from sterile vials onto Sabouraud dextrose agar, which was composed of 40 g dextrose (Penta, Czech Republic), 10 g peptone (OXOID, Great Britain) and 17 g agar (OXOID), dissolved in 1 l of distilled water, and cultivated for 24 hours at 35° C.
(§2) All strains were stored in a way that minimizes the possibility of mutation. Candida spp. were grown overnight in liquid YPD medium which is composed of 10 g yeast extract (DIFCO, USA), 20 g peptone (OXOID), and 20 g dextrose (Penta) dissolved in 1 l distilled water. Then the overnight culture was cryogenically preserved by suspending in 50% glycerol solution (1:1) in small vials and stored at −80° C.
(§3) The inoculum was prepared by picking five colonies from 24-hour-old cultures of Candida spp. The colonies were suspended in 1 ml of sterile saline solution and vortexed for 15 seconds. Optical density of the suspension was adjusted spectrophotometrically by adding sterile saline solution to produce optical density of 0.18 at 600 nm. A working suspension was made by a 1:50 dilution followed by a 1:20 dilution of the stock suspension with RPMI 1640 broth medium which was composed of L-glutamine without NaHCO3 (BioSera, France), and with 0.165 mol.l^−1 MOPS (Duchefa, Netherland)—further as RPMI broth medium.
(§4) The broth microdilution test was performed by using sterile, disposable, multi-well microdilution plates (96-well). The peptides in the concentrations 0.625-160 μmol.l^−1 were pipetted into the wells in 100 μl volumes. Each well of the plate was inoculated with 100 μl of the diluted inoculum suspension. Final yeast density in each well was 5×10^2 up to 2.5×10^3 CFU/ml. The microdilution plates were incubated without shaking at 35° C. and observed for the presence or absence of visible growth for 48 hours.
(§5) Drug-free medium without inoculation served as negative control; the growth positive control contained inoculated drug-free medium. Amphotericin B was used as control drug to ensure quality of Candida strains.
(§6) The minimal inhibition concentrations (MICs) were visually determined 48 hours after inoculation. The MIC values were defined as the lowest concentration in which no observable growth is noticeable.
(§7) All yeast isolates were obtained from the Institute of Physiology of the Academy of Sciences of the Czech Republic. Candida albicans (Olomouc) came from the Faculty of Medicine and Dentistry, Palacý University Olomouc.
(Broth dilution looks for growth in wells or tubes with falling amounts of substance.)

For assay [2], the system named is Candida albicans ATCC MYA-2876. Put plainly: microbe, parasite or virus in culture. The following applies: Candida albicans; RPMI broth microdilution, 35° C., 48 hours, visual; read-out: Antifungal activity MIC C. albicans ATCC MYA-2876. The procedure: as §1, §2, §3, §4, §5, §6, §7
Assay [3] deals with Candida dubliniensis ATCC MYA-646. Nature of the assay: microbe, parasite or virus in culture. The note with it: Candida dubliniensis; RPMI broth microdilution, 35° C., 48 hours, visual; read-out: Antifungal activity MIC C. dubliniensis ATCC MYA-646. The procedure:
as §1, §2, §3, §4, §5, §6, §7

The test system of assay [4] is Candida glabrata ATCC 2001. Nature of the assay: microbe, parasite or virus in culture. The following applies: Nakaseomyces glabratus, ATCC2001; RPMI broth microdilution, 35° C., 48 hours, visual; read-out: Antifungal activity MIC C. glabrata ATCC 2001. The procedure:
as §1, §2, §3, §4, §5, §6, §7

For the next assay, the system named is Candida glabrata DSY 565. Put plainly: microbe, parasite or virus in culture. The note with it: Nakaseomyces glabratus, DSY565; RPMI broth microdilution, 35° C., 48 hours, visual; read-out: Antifungal activity MIC C. glabrata DSY 565. Here is the method: as §1, §2, §3, §4, §5, §6, §7
The next assay concerns Candida krusei ATCC 6258. Put plainly: microbe, parasite or virus in culture. The following applies: Pichia kudriavzevii, ATCC6258; RPMI broth microdilution, 35° C., 48 hours, visual; read-out: Antifungal activity MIC C. krusei ATCC 6258. The procedure:
as §1, §2, §3, §4, §5, §6, §7

Assay [5] concerns Candida tropicalis ATCC 750. Put plainly: microbe, parasite or virus in culture. The note with it: Candida tropicalis, ATCC750; RPMI broth microdilution, 35° C., 48 hours, visual; read-out: Antifungal activity MIC C. tropicalis ATCC 750. Here is the method:
as §1, §2, §3, §4, §5, §6, §7

The test system of assay [6] is Candida albicans (Olomouc) biofilm. Put plainly: C. albicans biofilm, remaining metabolic activity (XTT). Here is the method:
Candida albicans (Olomouc) was sub-cultured overnight in YPD medium (10 g yeast extract (DIFCO, USA), 20 g peptone (OXOID), 20 g glucose (Penta) dissolved in 1 L of distilled water) at constant shaking (100 RPM) at 37° C. Next day, the overnight culture was diluted 1:100 into fresh YPD medium and incubated at constant shaking (200 RPM) at 37° C. until the mid-exponential growth phase was reached. Then the cells were harvested and washed twice by centrifugation in physiological solution (5000 RPM; 5 min). Cells were suspended in sterile salt solution and their optical density was determined at 600 nm.
A final yeast suspension was prepared at a cell density of 1×10^6 CFU (corresponding to optical density of 0.17 at 600 nm) in RPMI 1640 medium with L-glutamine (BioSera), NaHCO3 (2 g/l; Penta) and 0.165 mol.l^−1 MOPS (Duchefa)—further as RPMI broth medium 1.
Biofilms were formed on commercially available sterile, polystyrene, flat-bottomed, 96-well microtiter plates (TPP, SW). Cell suspension (100 μl) was pipetted into selected wells of a microtiter plate and incubated without shaking for 2 hours at 37° C. Afterwards, the wells were washed twice with sterile PBS buffer (1.44 g Na2HPO4, 0.24 g KH2PO4, 0.2 g KCl and 8 g NaCl in 1 l distilled water, pH=7; Penta). Fresh RPMI broth medium 1 (100 μl) was added to each well and the plate was sealed with parafilm and incubated without shaking for 48 hours at 37° C.
Planktonic and non-adherent cells were removed by threefold washing of the biofilm with sterile PBS buffer (200 μl). A twofold serial dilution was used to reach required peptide concentration (in RPMI broth medium 1) in each well. Peptide concentrations range was between 0.39-200 μmol.l^−1. Plates were then sealed with parafilm and incubated for 20 hours at 37° C.
The metabolic activity of surviving Candida cells in the treated biofilm was determined by staining with XTT (2,3-Bis(2-methoxy-4-nitro-5-sulphophenyl)-2H-tetrazolium-5-carboxanilide). Stock solution of PMS (phenazine methosulfate; 7.5 g/l; SIGMA, Czech Republic) stored at −20° C. was diluted in PBS buffer 1:100. Diluted PMS was further mixed (2:25) with stock solution of XTT (0.5 g/l; Alchimica, Slovakia) dissolved in PBS/RPMI broth medium (1:1). Mixture (100 μl) of PMS and XTT was added into treated biofilm in the wells and incubated for 90 min at 37° C. Then the intensity of staining in each well was measured as absorbance at 540 nm on a Tecan Infinite M200 Pro reader (Tecan GmbH, Austria). Remaining metabolic activity of the cells in the biofilm was expressed for each well in percentage and calculated as follows:
[formula] where A is the absorbance of tested compound, ABL is the absorbance of negative control and AC is the absorbance of control untreated biofilm. The non-inoculated wells served as negative control. Inoculated wells not treated with compound served as positive control. Amphotericin B was used as control drug to ensure quality of Candida albicans. The values of remaining metabolic activity of treated biofilms are shown at Table 5.
(In general: Formazan colour is commonly taken as a measure of viable cells.)

[7] abbreviates: peptide concentration 6.25 μmol · l^−1, 20 hours.
Where [8] appears, read: peptide concentration 12.5 μmol · l^−1, 20 hours.
Setting [9] is: peptide concentration 25 μmol · l^−1, 20 hours.
Where [10] appears, read: peptide concentration 50 μmol · l^−1, 20 hours.
Setting [11] is: peptide concentration 100 μmol · l^−1, 20 hours.
[12] abbreviates: peptide concentration 200 μmol · l^−1, 20 hours.

Regarding `Clc1ccccc1C(c1ccccc1)(c1ccccc1)n1ccnc1` [Clotrimazole, reference compound], the MIC was determined as 0.4 µM (≈ 0.138 µg/mL) in assay [1]; 0.3 µM (≈ 0.103 µg/mL) in assay [2]; 1.4 µM (≈ 0.483 µg/mL) in assay [3]; 14.2 µM (≈ 4.9 µg/mL) in assay [4]; 35 µM (≈ 12.1 µg/mL) with Candida glabrata DSY 565; 1 µM (≈ 0.345 µg/mL) in the assay with Candida krusei ATCC 6258. In addition, the MIC in assay [5] worked out at 4.6 µM (≈ 1.59 µg/mL). The “Metabolic activity of C. albicans (%)” value in assay [6] (setting [7]) amounted to 39.7%; in assay [6] (setting [8]), 37.6%; in assay [6] (setting [9]), 34.2%; in assay [6] (setting [10]), 28.4%; in assay [6] (setting [11]), 21.8%; in assay [6] (setting [12]) it was 22.2%.
Take `OC(Cn1cncn1)(Cn1cncn1)c1ccc(F)cc1F` [Fluconazole, reference compound]: the MIC turned out to be 2 µM (≈ 0.613 µg/mL) in assay [1]; 2.2 µM (≈ 0.674 µg/mL) in assay [2]; 1.8 µM (≈ 0.551 µg/mL) in assay [3]; 267 µM (≈ 81.7 µg/mL) in assay [4]; 950 µM (≈ 291 µg/mL) in the assay with Candida glabrata DSY 565; 516 µM (≈ 158 µg/mL) in the assay with Candida krusei ATCC 6258. In assay [5], the MIC turned out to be 49.3 µM (≈ 15.1 µg/mL). The “Metabolic activity of C. albicans (%)” value in assay [6] (setting [7]) is recorded as 33.5%; in assay [6] (setting [8]), 30.8%; in assay [6] (setting [9]) it was 31.7%; in assay [6] (setting [10]), 30.7%; in assay [6] (setting [11]) it was 32.4%; in assay [6] (setting [12]), 29.2%.
